Data from patent US12128260B2, “Pathogen capture using active surface modification” (priority 2020, dated 2024).

Assays:
SARS-CoV-2 spike protein = SARS-CoV-2 spike protein (Severe acute respiratory syndrome coronavirus 2, UniProt P0DTC2); type: binding
IgG = assay: Model protein (IgG) capture on nanocoated facemask pieces, Gel-Code protein staining dye; type: binding; settings: FIG. 7, IgG incubated 30 minutes, PBS wash, colour change, relative to uncoated facemask
Description: FIG. 7 depicts the relative binding of a model protein to pieces of facemasks coated with a different one of three bifunctional silane chemicals as well as to uncoated had hydrophobic controls. With reference to FIG. 7, pairs of pieces of standard facemasks (Machimpex, catalogue #1005-544-988) were nanocoated with one of the various chemicals. One pair, shown at the far left, was left uncoated. […] IgG was used as a model for protein capture as it behaved similar to the full-length coronavirus spike protein in plate-binding assays and is likely to have similar activity to that of bacterial coat proteins. The IgG was applied to the facemask fabric and incubated for 30 minutes prior to washing in phosphate buffered saline (PBS). Detection of the captured protein after washing was performed by applying 200 μl Gel-Code protein staining dye (Thermo Fisher Scientific, catalogue #24590) directly to the materials and incubating for one hour. Color change indicating protein capture was documented by photography.

Human IgG = settings: FIGS. 4A and 4B; all concentration levels that included IgG, starting at 1 μg/ml; compared with high-protein-binding ELISA plates

CCO[Si](CCCNC(=O)/C=C\C(=O)O)(OCC)OCC [CCH8845, triethoxysilylpropylmaleamic acid]
overall capability of binding the coronavirus spike protein (SARS-CoV-2 spike protein): bind about equally well as CCH9021, CCH4502, and CCH1053

CCO[Si](CCCNCCN)(OCC)OCC [CCH9021, N-(2-aminoethyl)-3-aminopropyltriethoxysilane]
relative binding of SARS-CoV-2 spike glycoprotein (SARS-CoV-2 spike protein): slightly underperformed the high-protein-binding ELISA plate | capture of model protein (IgG) onto facemask (IgG): efficiently captured the protein onto facemask relative to the uncoated facemask | capture of model protein (IgG) onto facemask (IgG; listed as NCT9021): appears to have captured more efficiently

CO[Si](C)(CCCNCCCN(C)C)OC [CCH699020, 3-(N,N-dimethylaminopropyl)aminopropylmethyldimethoxysilane]
relative binding of SARS-CoV-2 spike glycoprotein applied at different concentrations (SARS-CoV-2 spike protein): control high-protein-binding ELISA plate significantly outperformed the chemical coating

CCO[Si](CCCNCCN)(OCC)OCC [N-(2-aminoethyl)-3-aminopropyltriethoxysilane]
relative binding of IgG applied at different concentrations (Human IgG): significantly outperformed the high-protein-binding ELISA plates
